16 compounds from patent publication US20240287070A1, “FUSED HETEROCYCLIC DERIVATIVES” (Janssen Sciences Ireland Unlimited Company, priority 2021, published 2024) can be followed below.

As usually defined, the EC50 is the concentration giving half of the maximal effect. A low value points to an effect from little substance. As a reminder, the CC50 is the concentration giving 50% cytotoxicity.

Molecules are shown by their SMILES.

For data set [1], the system named is HBV (HepG2.117 cell line, inducibly HBV producing). Put plainly: Anti-HBV activity, intracellular HBV DNA by real-time PCR in HepG2.117 cell line. The conditions noted are these: HepG2.117 cells, 3 days of treatment. It counts as cell-based, hepatitis B virus. An outline of the steps:
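Read-out is intracellular HBV DNA, measured by real-time PCR using HBV-specific primers and probe. Cells were stable, inducible HBV-producing HepG2.117 (Tet-off). Serially diluted compound was applied for 3 days after replication was induced.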
(Quantitative PCR measures a nucleic acid by following its amplification.)

Another data set deals with HepG2 or HepG2.117 cells. Put plainly: Cytotoxicity, ATPlite Luminescence Assay. Type of data set: cell-based, human. Conditions: 3-days incubation unless marked with *. An outline of the steps: (§1)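 Luminescent ATP quantitation served as the viability endpoint following a 3- or 4-day incubation with test compounds.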
For orientation: ATP-based viability assays read luminescence as a measure of living cells.

Data set [2] can be described thus: Human liver microsome stability. It counts as in vitro ADME. Conditions: for half-life at 1 μM: pooled human liver microsomes, pH 7.4, pooled human liver microsomes 0.5 mg/mL, read-out: HLM Metabolism t1/2. The procedure, abridged:
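Single incubations with human liver microsomes started with 1 mM NADPH; samples taken at 0, 5, 10, 20, 40 and 60 min, quenched in acetonitrile (1:3). Cassette LC-MS analysis with internal standard; t½ derived from slope of ln peak-area ratio versus time (k = −gradient).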

The nature of data set [3]: Cytotoxicity, ATPlite Luminescence Assay. It counts as cell-based, human. Conditions: human, HepG2 or HepG2.117 cells, 3-days incubation unless marked with *. An outline of the steps: as §1
The mark [4] stands for this setting: pooled human liver microsomes 0.5 mg/mL, 1 μM compound, NADPH 1 mM, 37° C., 0-60 min.
[5] abbreviates: human, 1 μM compound, NADPH 1 mM, 37° C., 0-60 min.
Where [6] appears, read: Hepatitis B virus, HepG2.117, 72 h.

In the case of `C[C@@H]1Cc2nn3c(c2CN1C(=O)c1ccc(Cl)c(C#N)c1)C(=O)N([C@@H](C)c1ccc(OC(F)F)cc1)C[C@H]3C` (relative stereo) [Compound 1D, 2-Chloro-5-((3R,7R*)-9-((S*)-1-(4-(difluoromethoxy)phenyl)ethyl)-3,7-dimethyl-O-oxo-1,2,3,4,7,8,9,10-octahydropyrido[4′,3′:3,4]pyrazolo[1,5-a]pyrazine-2-carbonyl)benzonitrile], in data set [1], the EC50 worked out at 0.021 µM. Also, the CC50 with HepG2 or HepG2.117 cells is more than 50 µM. For the same compound, in data set [2] (human, microsomes), the “HLM Metabolism t1/2” value was more than 3 h.

In data set [1], `C[C@@H]1Cc2nn3c(c2CN1C(=O)c1ccc(Cl)c(C(F)(F)F)c1)C(=O)N([C@H](C)c1ccc([S@@](C)(=O)=NC#N)cc1)C[C@H]3C` (relative stereo) [Compound 20A, N—((R*)-(4-((R*)-1-((3R,7R)-2-(4-chloro-3-(trifluoromethyl)benzoyl)-3,7-dimethyl-10-oxo-1,3,4,7,8,10-hexahydropyrido[4′,3′:3,4]pyrazolo[1,5-a]pyrazin-9(2H)-yl)ethyl)phenyl)(methyl)(oxo)-16-sulfaneylidene)cyanamide] displayed an EC50 of 0.041 µM. Moreover, the CC50 in the data set with HepG2 or HepG2.117 cells is more than 50 µM. The “HLM Metabolism t1/2” value in data set [2] (setting [4]) was more than 3 h.

As to `C[C@@H]1Cc2nn3c(c2CN1C(=O)c1ccc(Cl)c(C(F)(F)F)c1)C(=O)N([C@H](C)c1ccc([S@](C)(=O)=NC#N)cc1)C[C@H]3C` (relative stereo) [Compound 20B, N—((S*)-(4-((R*)-1-((3R,7R)-2-(4-chloro-3-(trifluoromethyl)benzoyl)-3,7-dimethyl-10-oxo-1,3,4,7,8,10-hexahydropyrido[4′,3′:3,4]pyrazolo[1,5-a]pyrazin-9(2H)-yl)ethyl)phenyl)(methyl)(oxo)-16-sulfaneylidene)cyanamide], the concentration for a half-maximal effect (EC50) in data set [1] stood at 0.089 µM. Moreover, the CC50 with HepG2 or HepG2.117 cells was more than 50 µM. In addition, in data set [2] (setting [4]), the “HLM Metabolism t1/2” value turned out to be 2.6 h.

Compound `C[C@@H]1Cc2nn3c(c2CN1C(=O)c1ccc(Cl)c(C(F)(F)F)c1)C(=O)N([C@@H](C)c1ccc([S@@](C)(=O)=NC#N)cc1)C[C@H]3C` (relative stereo) [Compound 20C, N—((R*)-(4-((S*)-1-((3R,7R)-2-(4-chloro-3-(trifluoromethyl)benzoyl)-3,7-dimethyl-10-oxo-1,3,4,7,8,10-hexahydropyrido[4′,3′:3,4]pyrazolo[1,5-a]pyrazin-9(2H)-yl)ethyl)phenyl)(methyl)(oxo)-16-sulfaneylidene)cyanamide] had a concentration for a half-maximal effect (EC50) in data set [1] of 0.016 µM. The compound further showed a CC50 in the data set on HepG2 or HepG2.117 cells of more than 50 µM. The “HLM Metabolism t1/2” value in data set [2] (setting [4]) was determined as 1.02 h.

The compound `C[C@@H]1Cc2nn3c(c2CN1C(=O)c1ccc(Cl)c(C(F)(F)F)c1)C(=O)N([C@@H](C)c1ccc([S@](C)(=O)=NC#N)cc1)C[C@H]3C` (relative stereo) [Compound 20D, N—((S*)-(4-((S*)-1-((3R,7R)-2-(4-chloro-3-(trifluoromethyl)benzoyl)-3,7-dimethyl-10-oxo-1,3,4,7,8,10-hexahydropyrido[4′,3′:3,4]pyrazolo[1,5-a]pyrazin-9(2H)-yl)ethyl)phenyl)(methyl)(oxo)-16-sulfaneylidene)cyanamide] returned a 50% effective concentration (EC50) in data set [1] of 0.032 µM. For the same compound, the CC50 with HepG2 or HepG2.117 cells is more than 50 µM. For the same compound, the “HLM Metabolism t1/2” value in data set [2] (setting [4]) was 1.47 h.

On to `Cc1ncnn1-c1ccc(C(C)N2C[C@@H](C)n3nc4c(c3C2=O)CN(C(=O)c2ccc(Cl)c(Cl)c2)[C@H](C)C4)cn1` (relative stereo) [Compound 25A, (3R,7R)-2-(3,4-dichlorobenzoyl)-3,7-dimethyl-9-((R*)-1-(6-(5-methyl-11H-1,2,4-triazol-1-yl)pyridin-3-yl)ethyl)-1,2,3,4,8,9-hexahydropyrido[4′,3′:3,4]pyrazolo[1,5-a]pyrazin-10(7H)-one], for which the EC50 in data set [1] was found to be 0.23 µM. The compound further came in with a 50% cytotoxic concentration (CC50) in the data set on HepG2 or HepG2.117 cells of more than 50 µM. Moreover, the “HLM Metabolism t1/2” value in data set [2] (setting [4]) was more than 3 h.

The compound `C[C@@H]1Cc2nn3c(c2CN1C(=O)c1ccc(Cl)c(C(F)(F)F)c1)C(=O)N([C@H](C)c1ccc([S@@]2(=O)=NCCC2)nc1)C[C@H]3C` (relative stereo) [Compound 30A, (3R,7R)-2-(4-chloro-3-(trifluoromethyl)benzoyl)-3,7-dimethyl-9-((R*)-1-(6-((R*)-1-oxido-4,5-dihydro-3H-116-isothiazol-1-yl)pyridin-3-yl)ethyl)-1,2,3,4,8,9-hexahydropyrido[4′,3′:3,4]pyrazolo[1,5-a]pyrazin-10(7H)-one] gave an EC50 in data set [1] of 0.14 µM. This compound also had a CC50 in the data set with HepG2 or HepG2.117 cells of more than 50 µM. Also, the “HLM Metabolism t1/2” value in data set [2] (setting [4]) was determined as 0.495 h.

Take `C[C@@H]1Cc2nn3c(c2CN1C(=O)c1ccc(Cl)c(C(F)(F)F)c1)C(=O)N([C@@H](C)c1ccc([S@@]2(=O)=NCCC2)nc1)C[C@H]3C` (relative stereo) [Compound 30B, (3R,7R)-2-(4-chloro-3-(trifluoromethyl)benzoyl)-3,7-dimethyl-9-((S*)-1-(6-((R*)-1-oxido-4,5-dihydro-3H-116-isothiazol-1-yl)pyridin-3-yl)ethyl)-1,2,3,4,8,9-hexahydropyrido[4′,3′:3,4]pyrazolo[1,5-a]pyrazin-10(7H)-one]: it took 0.074 µM to reach a half-maximal effect in data set [1] (EC50). This compound had a CC50 with HepG2 or HepG2.117 cells of more than 50 µM. Also, the “HLM Metabolism t1/2” value in data set [2] (setting [4]) stood at 0.315 h.

In data set [1], `CC(c1ccc(C(C)(C)O)nc1)N1C[C@@H](C)n2nc3c(c2C1=O)CN(C(=O)c1ccc(Cl)c(F)c1F)[C@H](C)C3` (single isomer, unassigned) [Compound 61A, (3R,7R)-2-(4-chloro-2,3-difluorobenzoyl)-9-((R*)-1-(6-(2-hydroxypropan-2-yl)pyridin-3-yl)ethyl)-3,7-dimethyl-1,2,3,4,8,9-hexahydropyrido[4′,3′:3,4]pyrazolo[1,5-a]pyrazin-10(7H)-one] returned a 50% effective concentration (EC50) of 2.34 µM. For the same compound, the half-maximal cytotoxic concentration (CC50) at 3 days in data set [3] was more than 50 µM. Also, the half-life at 1 μM in data set [2] (setting [5]) is more than 3 h.

In the case of `CC(c1ccc(C(C)(C)O)nc1)N1C[C@@H](C)n2nc3c(c2C1=O)CN(C(=O)c1ccc(Cl)c(C(F)(F)F)n1)[C@H](C)C3` (single isomer, unassigned) [Compound 62A, (3R,7R)-2-(5-chloro-6-(trifluoromethyl)picolinoyl)-9-((R*)-1-(6-(2-hydroxypropan-2-yl)pyridin-3-yl)ethyl)-3,7-dimethyl-1,2,3,4,8,9-hexahydropyrido[4′,3′:3,4]pyrazolo[1,5-a]pyrazin-10(7H)-one], the EC50 in data set [1] came out at 0.61 µM. For the same compound, the CC50 at 3 days in data set [3] was more than 50 µM. Further, the half-life at 1 μM in data set [2] (setting [5]) is more than 3 h.

The compound `CC(c1ccc(C(C)(C)O)nc1)N1C[C@@H](C)n2nc3c(c2C1=O)CN(C(=O)c1ccc(Cl)c(C#N)c1)[C@H](C)C3` (single isomer, unassigned) [Compound 63A, 2-chloro-5-((3R,7R)-9-((R*)-1-(6-(2-hydroxypropan-2-yl)pyridin-3-yl)ethyl)-3,7-dimethyl-10-oxo-1,2,3,4,7,8,9,10-octahydropyrido[4′,3′:3,4]pyrazolo[1,5-a]pyrazine-2-carbonyl)benzonitrile] returned an EC50 in data set [1] of 0.38 µM. This compound also registered a CC50 at 3 days in data set [3] of more than 50 µM. Also, the half-life at 1 μM in data set [2] (setting [5]) was more than 3 h.

On to `CC(c1ccn(CC(C)(C)O)c(=O)c1)N1C[C@@H](C)n2nc3c(c2C1=O)CN(C(=O)c1ccc(Cl)c(C(F)(F)F)c1)[C@H](C)C3` (single isomer, unassigned) [Compound 64A, (3R,7R)-2-(4-chloro-3-(trifluoromethyl)benzoyl)-9-((R*)-1-(1-(2-hydroxy-2-methylpropyl)-2-oxo-1,2-dihydropyridin-4-yl)ethyl)-3,7-dimethyl-1,2,3,4,8,9-hexahydropyrido[4′,3′:3,4]pyrazolo[1,5-a]pyrazin-10(7H)-one], for which, in data set [1], a half-maximal response (EC50) required 0.039 µM. For the same compound, the CC50 at 3 days in data set [3] is more than 50 µM. Further, the half-life at 1 μM in data set [2] (setting [5]) was found to be 1.82 h.

In turn, `CC(c1ccccn1)N1C[C@@H](C)n2nc3c(c2C1=O)CN(C(=O)c1ccc(Cl)c(Cl)c1)[C@H](C)C3` (single isomer, unassigned) [Compound 65A, (3R,7R)-2-(3,4-dichlorobenzoyl)-3,7-dimethyl-9-((R*)-1-(pyridin-2-yl)ethyl)-1,2,3,4,8,9-hexahydropyrido[4′,3′:3,4]pyrazolo[1,5-a]pyrazin-10(7H)-one] gave an EC50 in data set [1] (setting [6]) of 0.034 µM. In addition, the CC50 at 3 days in data set [3] is more than 50 µM. Further, the half-life at 1 μM in data set [2] (setting [5]) was found to be 2.53 h.

`CC(c1ccc(C#N)cc1)N1C[C@@H](C)n2nc3c(c2C1=O)CN(C(=O)c1ccc(Cl)c(Cl)c1)[C@H](C)C3` (single isomer, unassigned) [Compound 66A, 4-((R*)-1-((3R,7R)-2-(3,4-dichlorobenzoyl)-3,7-dimethyl-10-oxo-1,3,4,7,8,10-hexahydropyrido[4′,3′:3,4]pyrazolo[1,5-a]pyrazin-9(2H)-yl)ethyl)benzonitrile] had an EC50 in data set [1] of 0.037 µM. This compound also came in with a CC50 at 3 days in data set [3] of more than 26.2 µM. Also, the half-life at 1 μM in data set [2] (setting [5]) was more than 3 h.

In data set [1] (setting [6]), `C[C@@H]1Cc2nn3c(c2CN1C(=O)c1ccc(Cl)c(C#N)c1)C(=O)N([C@H](C)c1ccc(OC(F)F)cc1)CC3` [Ref 1, reference compound] yielded an EC50 of 0.095 µM. In addition, the CC50 at 3 days in data set [3] was more than 12.5 µM. Further, the half-life at 1 μM in data set [2] (setting [5]) was found to be 0.583 h.

As to `C[C@@H]1Cc2nn3c(c2CN1C(=O)c1ccc(Cl)c(C#N)c1)C(=O)N([C@@H](C)c1ccc(OC(F)F)cc1)CC3` [Ref 2, reference compound], in data set [1] (setting [6]), the midpoint of the response, the EC50, lay at 0.03 µM. In data set [3], this compound gave a CC50 at 3 days of more than 50 µM. In data set [2] (setting [5]), the half-life at 1 μM came out at 0.63 h.
